Results from ChEMBL document CHEMBL1201862, “PubChem BioAssay data set” (2004).
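1) Cells in 96-well plates. 2) Compound, 48 h, 5 concentrations. 3) Linear interpolation between surrounding doses. 4) Unreached endpoint = highest concentration. GI50 = concentration required for 50% inhibition of growth.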 Active and inactive are the calls of the source. No stated cut-off is given here; in the data, active = GI50 up to about 1.1 µM and inactive = higher.

Legend:
Test in all cases: growth of human tumour cells (NCI), 48 h
SF-268 = test system: SF-268
SF-295 = test system: SF-295
CCRF-CEM = test system: CCRF-CEM
A549 = test system: A549
SK-OV-3 = test system: SK-OV-3
OVCAR-5 = test system: OVCAR-5
LXFL 529 = test system: LXFL 529
SK-MEL-5 = test system: SK-MEL-5
HT-29 = test system: HT-29
HCT-15 = test system: HCT-15
786-0 = test system: 786-0
MOLT-4 = test system: MOLT-4
OVCAR-8 = test system: OVCAR-8
CAKI-1 = test system: CAKI-1
RXF 393 = test system: RXF 393
SW-620 = test system: SW-620
SN12C = test system: SN12C
UACC-62 = test system: UACC-62

| SMILES | GI50 (SF-268) | GI50 (SF-295) | GI50 (CCRF-CEM) | GI50 (A549) | GI50 (SK-OV-3) | GI50 (OVCAR-5) | GI50 (LXFL 529) | GI50 (SK-MEL-5) | GI50 (HT-29) | GI50 (HCT-15) | GI50 (786-0) | GI50 (MOLT-4) | GI50 (OVCAR-8) | GI50 (CAKI-1) | GI50 (RXF 393) | GI50 (SW-620) | GI50 (SN12C) | GI50 (UACC-62) |
| --- | --- | --- | --- | --- | --- | --- | --- | --- | --- | --- | --- | --- | --- | --- | --- | --- | --- | --- |
| Cc1cccc2[s+]snc12 | > 100 µM (inactive) | > 100 µM (inactive) | 23.9 µM (inactive) | > 100 µM (inactive) | > 100 µM (inactive) | > 100 µM (inactive) | 36.1 µM (inactive) | > 100 µM (inactive) | > 100 µM (inactive) | > 47.4 µM | > 76.9 µM (inactive) | 25.8 µM (inactive) | > 45 µM (inactive) | > 78.2 µM (inactive) | 47.3 µM (inactive) | 24.2 µM (inactive) | > 69.2 µM (inactive) | > 100 µM (inactive) |
| O=C(CCc1nnc2s/c(=C\c3ccc(Cl)c(Cl)c3)c(=O)n12)Nc1ccc(Cl)c(Cl)c1 | 55.5 µM (inactive) | 46.1 µM (inactive) | 22.5 µM (inactive) | > 100 µM (inactive) | > 100 µM (inactive) | > 100 µM (inactive) | 88.1 µM (inactive) | 43.9 µM (inactive) | > 100 µM (inactive) | > 100 µM | > 100 µM (inactive) | 20.7 µM (inactive) | 20.4 µM (inactive) | > 100 µM (inactive) | 28.8 µM (inactive) | > 100 µM (inactive) | > 100 µM (inactive) | > 100 µM (inactive) |
| Cc1[nH]c2ccccc2c1C(=O)CC1(O)C(=O)Nc2ccccc21 (stereo not given) | > 100 µM (inactive) | > 100 µM (inactive) | > 100 µM (inactive) | > 100 µM (inactive) | > 100 µM (inactive) | > 100 µM (inactive) | > 100 µM (inactive) | > 100 µM (inactive) | > 100 µM (inactive) | > 100 µM | > 100 µM (inactive) | > 100 µM (inactive) | – | > 100 µM (inactive) | > 100 µM (inactive) | > 100 µM (inactive) | > 100 µM (inactive) | > 100 µM (inactive) |
| CC(=O)OCC(OC(C)=O)C(OC(C)=O)C(OC(C)=O)C(=O)CNn1c(-c2ccccc2Cl)nc2ccccc2c1=O (stereo not given) | > 100 µM (inactive) | > 100 µM (inactive) | 84.3 µM (inactive) | > 100 µM (inactive) | > 100 µM (inactive) | > 100 µM (inactive) | > 100 µM (inactive) | > 100 µM (inactive) | > 100 µM (inactive) | > 100 µM | > 100 µM (inactive) | > 100 µM (inactive) | > 100 µM (inactive) | > 100 µM (inactive) | > 100 µM (inactive) | > 100 µM (inactive) | > 100 µM (inactive) | > 100 µM (inactive) |
| CCOC(=O)CC(C)C1(C=O)CCCCC1=O (stereo not given) | > 100 µM (inactive) | > 100 µM (inactive) | 41.8 µM (inactive) | > 100 µM (inactive) | > 100 µM (inactive) | > 100 µM (inactive) | > 100 µM (inactive) | > 100 µM (inactive) | > 10 µM (inactive) | 38 µM | 31 µM (inactive) | > 100 µM (inactive) | > 100 µM (inactive) | > 100 µM (inactive) | > 100 µM (inactive) | – | > 100 µM (inactive) | > 100 µM (inactive) |
| COc1ccc(CN2C(=O)[C@@H]3Cc4c(OC)c(C)c(OC)c(OC)c4[C@H](/C2=C\c2cc(OC)c(OC)c(C)c2OC)N3C(=O)OC(C)C)cc1 | > 100 µM (inactive) | 96.2 µM (inactive) | 35.4 µM (inactive) | 58.9 µM (inactive) | 32.5 µM (inactive) | > 100 µM (inactive) | 7.24 µM (inactive) | 29.4 µM (inactive) | 92.5 µM (inactive) | – | > 100 µM (inactive) | 6.97 µM (inactive) | > 100 µM (inactive) | 30.3 µM (inactive) | 80.4 µM (inactive) | 94.8 µM (inactive) | > 100 µM (inactive) | 48.6 µM (inactive) |
